Data on 15 compounds can be found in US4350705A, “Cyclohexane derivatives, process for preparation thereof and medicines containing these cyclohexane derivatives” (Eisai Co., Ltd., priority 1979, dated 1982).

Where two headings read alike, the source gives them in different places.

Data set [1] deals with spontaneous hypertensive rats (SHR). The experiment in a line: Hypotensive Action: systolic pressure from tail artery of SHR after oral administration 10 mg/Kg once a day for 2 days. To be noted: oral 10 mg/Kg, * = significant vs control, P = 0.01. It is filed as in vivo, rat. The method, then:
A test compound suspended in a gum arabic solution was orally administered once a day, at a dose of 10 mg/Kg (body weight), for 2 days, to groups of spontaneous hypertensive rats (hereinafter referred to as "SHR") (about 30 weeks old; systolic pressure=about 230 mm Hg), each group consisting of 6 rats.
The systolic pressure was measured from the tail artery of SHR under no anesthesia before the administration and 6 hours after the time of administration by using a continuous tonometer (Shimazu Tonometer Model SCS-301 manufactured by Shimazu Seisakusho K.K.). An aqueous solution of gum arabic alone was administered to the rats of the control group.

For data set [2] the test system is unchanged. Described as above. It is filed as in vivo, rat. To be noted: oral 10 mg/Kg, * = significant vs control, P = 0.01. The source holds these as a separate data set.
Data set [3] can be described thus: Acute Toxicity: LD50 in rats of the SD series, 14 days observation. It is filed as in vivo. Conditions: rat, in vivo, male. From the text: (§1) Groups of rats of the SD series (body weight=160-280 g; about 8 weeks old), each group consisting of 5 rats, were used. After administration of the test compound, the death or survival was examined during a period of 14 days to determine the LD50 value.

In the next data set the test system is rats of the SD series. Described as above. It is filed as in vivo. Conditions: female.
Text: as §1

Where [4] appears, read: ip, abdominal administration, read-out: LD50, Abdominal Administration, male.
Where [5] appears, read: oral, read-out: LD50, Oral Administration, male.

As to `COc1ccccc1C1CC(=O)C(C(=O)CCc2ccc3c(c2)OCO3)C(=O)C1` (stereo not drawn), in data set [1], the “Blood Pressure (mm Hg) on First Day, after 6 hours” value (shortened to “Blood Pressure (mm Hg) on First Day”) is 210 ± 5 mm Hg; the “Blood Pressure (mm Hg) on Second Day, after 6 hours” value worked out at 205 ± 5 mm Hg; the “Blood Pressure (mm Hg) on Second Day, before administration” value (shortened to “Blood Pressure … before administration”) was 220 ± 6 mm Hg. Further, the “Blood Pressure (mm Hg) on Second Day, after 24 hours” value (from here on “Blood Pressure … after 24 hours”) in data set [2] is reported as 220 ± 6 mm Hg.
For `CC1(C)Oc2ccc(CCC(=O)C3C(=O)CC(c4ccccc4)CC3=O)cc2O1` (stereo not drawn), in data set [1], the “Blood Pressure (mm Hg) on First Day” value was 207 ± 3 mm Hg; the “Blood Pressure (mm Hg) on Second Day, after 6 hours” value is 190 ± 5 mm Hg; the “Blood Pressure … before administration” value is given as 202 ± 7 mm Hg. Also, in data set [2], the “Blood Pressure … after 24 hours” value is 192 ± 7 mm Hg.
`O=C(CCc1ccc2c(c1)OC(c1ccccc1)(c1ccccc1)O2)C1C(=O)CC(c2ccccc2)CC1=O` (stereo not drawn): in data set [1], the “Blood Pressure (mm Hg) on First Day” value is recorded as 202 ± 5 mm Hg; the “Blood Pressure (mm Hg) on Second Day, after 6 hours” value is given as 192 ± 5 mm Hg; the “Blood Pressure … before administration” value is 210 ± 10 mm Hg. For the same compound, the “Blood Pressure … after 24 hours” value in data set [2] is listed as 208 ± 5 mm Hg.
Consider `COc1ccc(CCC(=O)C2C(=O)CC(c3ccccc3)CC2=O)cc1` (stereo not drawn), for which, in data set [1], the “Blood Pressure (mm Hg) on First Day” value was found to be 209 ± 5 mm Hg; the “Blood Pressure (mm Hg) on Second Day, after 6 hours” value amounted to 210 ± 5 mm Hg; the “Blood Pressure … before administration” value amounted to 213 ± 6 mm Hg. For the same compound, the “Blood Pressure … after 24 hours” value in data set [2] is recorded as 212 ± 6 mm Hg.
`O=C(CCc1ccccc1Cl)C1C(=O)CC(c2ccccc2)CC1=O` (stereo not drawn): in data set [1], the “Blood Pressure (mm Hg) on First Day” value came to 200 ± 3 mm Hg; the “Blood Pressure (mm Hg) on Second Day, after 6 hours” value stood at 213 ± 4 mm Hg; the “Blood Pressure … before administration” value is 208 ± 9 mm Hg. In data set [2], the “Blood Pressure … after 24 hours” value turned out to be 193 ± 1 mm Hg.
As to `O=C(CCc1ccc(O)c(O)c1)C1C(=O)CC(c2ccccc2)CC1=O` (stereo not drawn), in data set [1], the “Blood Pressure (mm Hg) on First Day” value is recorded as 204 ± 5 mm Hg; the “Blood Pressure (mm Hg) on Second Day, after 6 hours” value is recorded as 200 ± 5 mm Hg; the “Blood Pressure … before administration” value turned out to be 209 ± 5 mm Hg. The “Blood Pressure … after 24 hours” value in data set [2] is reported as 205 ± 5 mm Hg.
For `CC(=O)Oc1ccc(CCC(=O)C2C(=O)CC(c3ccccc3)CC2=O)cc1OC(C)=O` (stereo not drawn), in data set [1], the “Blood Pressure (mm Hg) on First Day” value is 195 ± 10 mm Hg; the “Blood Pressure (mm Hg) on Second Day, after 6 hours” value was 195 ± 10 mm Hg; the “Blood Pressure … before administration” value amounted to 222± 5 mm Hg. In addition, in data set [2], the “Blood Pressure … after 24 hours” value worked out at 212 ± 5 mm Hg.
`COc1ccc(C2CC(=O)C(C(=O)CCc3ccc(O)c(O)c3)C(=O)C2)cc1` (stereo not drawn): in data set [1], the “Blood Pressure (mm Hg) on First Day” value was 212 ± 3 mm Hg; the “Blood Pressure (mm Hg) on Second Day, after 6 hours” value is recorded as 220 ± 1 mm Hg; the “Blood Pressure … before administration” value was 225 ± 1 mm Hg. Further, the “Blood Pressure … after 24 hours” value in data set [2] came to 228 ± 2 mm Hg.
On the same counts, the results for `O=C(Cc1ccc(Cl)cc1)C1C(=O)CC(c2ccccc2)CC1=O` (stereo not drawn) are 215 ± 1 mm Hg, 215 ± 2 mm Hg, 217 ± 4 mm Hg and 222 ± 4 mm Hg.
In the same order, the values of `O=C(CCc1ccc2c(c1)OCO2)C1C(=O)CC(c2ccccc2)CC1=O` (stereo not drawn) [drawing 20] are 205 ± 7 mm Hg, 204 ± 6 mm Hg, 218 ± 7 mm Hg and 207 ± 7 mm Hg.
`Cc1ccc(C2CC(=O)C(C(=O)CCc3ccc4c(c3)OCO4)C(=O)C2)cc1` (stereo not drawn) [drawing 21]: in data set [1], the “Blood Pressure (mm Hg) on First Day” value was 198 ± 5 mm Hg; the “Blood Pressure (mm Hg) on Second Day, after 6 hours” value worked out at 188 ± 5 mm Hg; the “Blood Pressure … before administration” value turned out to be 200 ± 10 mm Hg. Besides, in data set [2], the “Blood Pressure … after 24 hours” value is on record as 192 ± 5 mm Hg.
In the same order, the values of `O=C(Cc1ccccc1)C1C(=O)CC(c2ccccc2)CC1=O` (stereo not drawn) [drawing 31] are 183 ± 3 mm Hg, 183 ± 3 mm Hg, 203 ± 3 mm Hg and 193 ± 7 mm Hg.
For `O=C(CCc1ccc2c(c1)OCO2)C1C(=O)CC(c2ccccc2)CC1=O` (stereo not drawn) [drawing 33], in data set [3] (setting [4]), the LD50 at 336 h is above 500 mg/kg. For the same compound, the LD50 at 336 h in data set [3] (setting [5]) was above 4000 mg/kg. For the same compound, in the data set with rats of the SD series, the “LD50, Abdominal Administration, female” value is given as above 500 and the “LD50, Oral Administration, female” value was above 4000.
In the case of `Cc1ccc(C2CC(=O)C(C(=O)CCc3ccc4c(c3)OCO4)C(=O)C2)cc1` (stereo not drawn) [drawing 34], the LD50 at 336 h in data set [3] (setting [4]) was above 500 mg/kg. The LD50 at 336 h in data set [3] (setting [5]) was above 4000 mg/kg. Besides, in the data set with rats of the SD series, the “LD50, Abdominal Administration, female” value is given as above 500 and the “LD50, Oral Administration, female” value is listed as above 4000.
For `O=C(Cc1ccccc1)C1C(=O)CC(c2ccccc2)CC1=O` (stereo not drawn) [drawing 35], the LD50 at 336 h in data set [3] (setting [4]) is above 500 mg/kg; in data set [3] (setting [5]) it was above 4000 mg/kg. Also, the “LD50, Abdominal Administration, female” value in the data set on rats of the SD series is listed as above 500. In the data set with rats of the SD series, the “LD50, Oral Administration, female” value was above 4000.
